± gives the expanded uncertainty stated by the source.
Assay: xn = mol fraction of the nth substance listed
Details: 101 kPa, Liquid; for speed of sound: Single path-length method; for mass density: Vibrating tube method; for viscosity: Concentric cylinders viscometry

CCCCCCCCCCCCCCCC [hexadecane] + CCCCO
Details	mass density [kg/m3]	speed of sound [m/s]	viscosity [mPa·s]
318.15 K, x2 = 0	756.05 ± 0.83	–	–
318.15 K, x2 = 0.1	756.2 ± 0.83	–	–
318.15 K, x2 = 0.2	757.02 ± 0.82	–	–
318.15 K, x2 = 0.3	758.17 ± 0.82	–	–
318.15 K, x2 = 0.4	759.66 ± 0.82	–	–
318.15 K, x2 = 0.5	761.63 ± 0.82	1229.5 ± 0.76	–
318.15 K, x2 = 0.6	764.24 ± 0.82	1221.4 ± 0.71	–
318.15 K, x2 = 0.7	767.71 ± 0.82	1212.1 ± 0.66	–
318.15 K, x2 = 0.8	772.49 ± 0.81	1201.3 ± 0.61	–
318.15 K, x2 = 0.9	779.38 ± 0.81	1188.2 ± 0.57	–
323.15 K, x2 = 0	752.61 ± 0.83	1247.1 ± 1	1.823 ± 0.014
323.15 K, x2 = 0.1	752.66 ± 0.83	1238.6 ± 0.96	1.707 ± 0.014
323.15 K, x2 = 0.2	753.42 ± 0.82	1232.1 ± 0.91	1.654 ± 0.013
323.15 K, x2 = 0.3	754.53 ± 0.82	1225.7 ± 0.86	1.6 ± 0.013
323.15 K, x2 = 0.4	755.97 ± 0.82	1218.8 ± 0.81	1.556 ± 0.012
323.15 K, x2 = 0.5	757.89 ± 0.82	1211.4 ± 0.76	1.517 ± 0.012
323.15 K, x2 = 0.6	760.45 ± 0.82	1203.4 ± 0.71	1.479 ± 0.012
323.15 K, x2 = 0.7	763.86 ± 0.82	1194.2 ± 0.7	1.452 ± 0.011
323.15 K, x2 = 0.8	768.59 ± 0.81	1183.6 ± 0.61	1.435 ± 0.011
323.15 K, x2 = 0.9	775.44 ± 0.81	1171 ± 0.57	1.404 ± 0.011
328.15 K, x2 = 0	749.18 ± 0.83	1229.3 ± 1	1.671 ± 0.014
328.15 K, x2 = 0.1	749.13 ± 0.83	1220.8 ± 0.96	1.563 ± 0.013
328.15 K, x2 = 0.2	749.82 ± 0.82	1214.2 ± 0.91	1.514 ± 0.013
328.15 K, x2 = 0.3	750.87 ± 0.82	1207.7 ± 0.86	1.464 ± 0.012
328.15 K, x2 = 0.4	752.26 ± 0.82	1200.8 ± 0.81	1.422 ± 0.012
328.15 K, x2 = 0.5	754.13 ± 0.82	1193.4 ± 0.76	1.383 ± 0.011
328.15 K, x2 = 0.6	756.63 ± 0.82	1185.4 ± 0.71	1.346 ± 0.011
328.15 K, x2 = 0.7	759.99 ± 0.82	1176.4 ± 0.66	1.317 ± 0.011
328.15 K, x2 = 0.8	764.66 ± 0.81	1166 ± 0.61	1.297 ± 0.011
328.15 K, x2 = 0.9	771.46 ± 0.81	1153.8 ± 0.57	1.264 ± 0.011
333.15 K, x2 = 0	745.74 ± 0.83	1211.8 ± 1	1.537 ± 0.013
333.15 K, x2 = 0.1	745.58 ± 0.83	1203.1 ± 0.96	1.437 ± 0.012
333.15 K, x2 = 0.2	746.2 ± 0.82	1196.3 ± 0.91	1.389 ± 0.012
333.15 K, x2 = 0.3	747.19 ± 0.82	1189.8 ± 0.86	1.343 ± 0.012
333.15 K, x2 = 0.4	748.53 ± 0.82	1182.9 ± 0.81	1.303 ± 0.011
333.15 K, x2 = 0.5	750.34 ± 0.82	1175.6 ± 0.76	1.266 ± 0.011
333.15 K, x2 = 0.6	752.78 ± 0.82	1167.6 ± 0.71	1.23 ± 0.011
333.15 K, x2 = 0.7	756.08 ± 0.82	1158.7 ± 0.66	1.199 ± 0.011
333.15 K, x2 = 0.8	760.69 ± 0.81	1148.5 ± 0.61	1.177 ± 0.01
333.15 K, x2 = 0.9	767.42 ± 0.81	1136.6 ± 0.57	1.143 ± 0.01
338.15 K, x2 = 0	742.31 ± 0.83	1194.4 ± 1	1.421 ± 0.013
338.15 K, x2 = 0.1	742.04 ± 0.83	1185.5 ± 0.96	1.328 ± 0.012
338.15 K, x2 = 0.2	742.57 ± 0.82	1178.7 ± 0.91	1.282 ± 0.012
338.15 K, x2 = 0.3	743.51 ± 0.82	1172.1 ± 0.86	1.238 ± 0.011
338.15 K, x2 = 0.4	744.78 ± 0.82	1165.2 ± 0.81	1.2 ± 0.011
338.15 K, x2 = 0.5	746.53 ± 0.82	1157.9 ± 0.76	1.163 ± 0.011
338.15 K, x2 = 0.6	748.9 ± 0.82	1149.9 ± 0.71	1.127 ± 0.01
338.15 K, x2 = 0.7	752.13 ± 0.82	1141 ± 0.66	1.095 ± 0.01
338.15 K, x2 = 0.8	756.66 ± 0.81	1131 ± 0.61	1.071 ± 0.01
338.15 K, x2 = 0.9	763.33 ± 0.81	1119.5 ± 0.57	1.036 ± 0.01
343.15 K, x2 = 0	738.88 ± 0.83	1177.5 ± 1	1.316 ± 0.012
343.15 K, x2 = 0.1	738.5 ± 0.83	1168.3 ± 0.96	1.23 ± 0.011
343.15 K, x2 = 0.2	738.94 ± 0.83	1161.2 ± 0.91	1.185 ± 0.011
343.15 K, x2 = 0.3	739.8 ± 0.82	1154.6 ± 0.86	1.144 ± 0.011
343.15 K, x2 = 0.4	741.01 ± 0.82	1147.7 ± 0.81	1.107 ± 0.011
343.15 K, x2 = 0.5	742.68 ± 0.82	1140.3 ± 0.76	1.071 ± 0.01
343.15 K, x2 = 0.6	744.98 ± 0.82	1132.3 ± 0.71	1.037 ± 0.01
343.15 K, x2 = 0.7	748.13 ± 0.82	1123.5 ± 0.66	1.004 ± 0.01
343.15 K, x2 = 0.8	752.59 ± 0.81	1113.6 ± 0.61	0.9782 ± 0.0099
343.15 K, x2 = 0.9	759.19 ± 0.81	1102.4 ± 0.57	0.9425 ± 0.0097
